From patent US12605423B2, “Peptide inhibitors targeting methyltransfer mechanism of SARS-CoV-2” (United Arab Emirates University, priority 2021, dated 2026)
“Also recorded” adds a separate entry of the source.

Key:
IL-6 = format: cell-based; settings: NCIH1792 (H1792) human lung cells, 10 μM peptide, versus PBS control

CSCC[C@H](NC(=O)[C@H](Cc1ccccc1)NC(=O)CNC(=O)[C@H](CO)NC(=O)CNC(=O)[C@H](CCCNC(=N)N)NC(=O)[C@H](CCCNC(=N)N)NC(=O)[C@H](CCCNC(=N)N)NC(=O)[C@H](CCC(N)=O)NC(=O)[C@H](CCCNC(=N)N)NC(=O)[C@H](CCCNC(=N)N)NC(=O)[C@H](CCCCN)NC(=O)[C@H](CCCCN)NC(=O)[C@H](CCCNC(=N)N)NC(=O)CNC(=O)[C@H](Cc1ccc(O)cc1)NC(C)=O)C(=O)N[C@@H](CC(=O)O)C(=O)N[C@@H](CC(C)C)C(=O)N[C@@H](CCCCN)C(=O)NCC(=O)N[C@@H](CCCCN)C(=O)N[C@@H](Cc1ccc(O)cc1)C(N)=O [Peptide P3, FMDLKGKY]
IL-6 induction (IL-6): not P2 nor P3; also recorded: does not stimulate IL-6
90% Effective Concentration (EC90) (SARS-CoV-2): 3.3 µM
EC90 (SARS-CoV-2): 3.3 µM
